The values that follow come from PubChem BioAssay (NCI).

Some test systems named below: A498 renal; CCRF-CEM leukemia; HL-60(TB) leukemia; HOP-92 NSCLC; HS 578T breast; IGROV1 ovarian; K-562 leukemia; M14 melanoma; MCF7 breast; MDA-MB-231 breast; NCI-H226 lung; NCI-H460 lung; NCI-H522 lung; OVCAR-8 ovarian; RPMI-8226 leukemia; SK-MEL-5 melanoma; SNB-75 CNS; U251 CNS; UACC-62 melanoma.
Test in all cases: NCI anticancer screen, dose series, 48 h

The structures appear in SMILES notation.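 Tested at 5 concentrations; 48 h exposure; 96-well plates; endpoints linearly interpolated, else capped at highest concentration. TGI is the concentration that stops growth completely.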 Where only a bound is given, the exact number is not on record here.

With `CCOC(=O)/C=C1\C[C@H](NC(=O)OCc2ccccc2)C(=O)N1CC(=O)OCC`, the TGI in the assay with A498 renal, with CCRF-CEM leukemia, in the assay on HL-60(TB) leukemia, in the assay with HOP-92 NSCLC, with HS 578T breast and in the assay with IGROV1 ovarian was > 100 µM each time. In addition, the TGI with K-562 leukemia, in the assay on M14 melanoma, in the assay on MCF7 breast, in the assay on MDA-MB-231 breast, with NCI-H226 lung and with NCI-H460 lung was > 100 µM throughout. The TGI in the assay with NCI-H522 lung, in the assay on OVCAR-8 ovarian, in the assay with RPMI-8226 leukemia, in the assay on SK-MEL-5 melanoma, in the assay with SNB-75 CNS and in the assay on U251 CNS was > 100 µM throughout. For the same molecule, the TGI in the assay with UACC-62 melanoma was > 100 µM.
With `COC(=O)c1c(OC(C)=O)ccc2c1c1cc3ccccc3c(OC(C)=O)c1n2C`, the TGI in the assay with A498 renal was 46 µM; in the assay with CCRF-CEM leukemia, > 100 µM; with HL-60(TB) leukemia, > 100 µM; in the assay on HOP-92 NSCLC, 37 µM; in the assay on HS 578T breast, 36.7 µM; in the assay on IGROV1 ovarian it was 12.8 µM. Besides, the TGI in the assay with K-562 leukemia, with M14 melanoma, in the assay on MCF7 breast, in the assay on MDA-MB-231 breast, with NCI-H226 lung and with NCI-H460 lung was > 100 µM throughout. Moreover, the TGI in the assay on NCI-H522 lung was 42.9 µM; with OVCAR-8 ovarian, > 100 µM; in the assay with RPMI-8226 leukemia it was > 100 µM; in the assay with SK-MEL-5 melanoma, 31.2 µM; in the assay with SNB-75 CNS, 36 µM; with U251 CNS it was > 100 µM. Further, the TGI in the assay on UACC-62 melanoma is > 100 µM.
With `N#C/C=C\c1ccc(-c2cc(C(F)(F)F)cc(C(F)(F)F)c2)o1`, the TGI in the assay on A498 renal is 61.3 µM; in the assay on CCRF-CEM leukemia it was > 100 µM; in the assay with HL-60(TB) leukemia, 41.4 µM; with HOP-92 NSCLC it was 50 µM; with HS 578T breast, 54.8 µM; with IGROV1 ovarian, > 100 µM. Moreover, the TGI with K-562 leukemia, in the assay on M14 melanoma, in the assay on MCF7 breast, in the assay on MDA-MB-231 breast, in the assay on NCI-H226 lung and in the assay on NCI-H460 lung was > 100 µM each time. The TGI with NCI-H522 lung is > 100 µM; in the assay with OVCAR-8 ovarian, 58.5 µM; in the assay on RPMI-8226 leukemia it was > 100 µM; in the assay on SK-MEL-5 melanoma, 43.1 µM; in the assay with SNB-75 CNS, 39.8 µM; with U251 CNS, 27.4 µM. This molecule displayed a TGI in the assay on UACC-62 melanoma of 62.8 µM.
Take `COc1ccc(-c2cc(-c3ccccc3)nc(N)n2)c(O)c1`: the TGI with A498 renal is > 100 µM; in the assay with CCRF-CEM leukemia, > 100 µM; in the assay with HL-60(TB) leukemia, > 20.6 µM; in the assay on HOP-92 NSCLC, > 100 µM; in the assay on HS 578T breast, > 100 µM; with IGROV1 ovarian, > 100 µM. Also, the TGI was > 22.9 µM in the assay with K-562 leukemia; > 100 µM in the assay with M14 melanoma; > 100 µM with MCF7 breast; > 100 µM with MDA-MB-231 breast; > 100 µM with NCI-H226 lung; > 100 µM with NCI-H460 lung. Besides, the TGI is > 100 µM with NCI-H522 lung; > 100 µM in the assay with OVCAR-8 ovarian; 5.76 µM in the assay with RPMI-8226 leukemia; > 100 µM in the assay with SK-MEL-5 melanoma; > 100 µM in the assay with SNB-75 CNS; > 100 µM in the assay with U251 CNS. Further, the TGI with UACC-62 melanoma is > 100 µM.
Regarding `CCOC(=O)c1c[nH]c2cc3c(cc2c1=O)CCS3`, the TGI in the assay on A498 renal, in the assay on CCRF-CEM leukemia, with HL-60(TB) leukemia, in the assay on HOP-92 NSCLC, in the assay with HS 578T breast and with IGROV1 ovarian was > 100 µM each time. In addition, the TGI in the assay with K-562 leukemia, in the assay with M14 melanoma, in the assay on MCF7 breast, in the assay on MDA-MB-231 breast, in the assay on NCI-H226 lung and in the assay with NCI-H460 lung was > 100 µM throughout. Moreover, the TGI in the assay with NCI-H522 lung, with OVCAR-8 ovarian, in the assay with RPMI-8226 leukemia, in the assay with SK-MEL-5 melanoma, in the assay with SNB-75 CNS and in the assay on U251 CNS was > 100 µM in each case. For the same molecule, the TGI in the assay with UACC-62 melanoma is > 100 µM.
Turning to `Cc1cccc2c(=O)c3c(O)cc4c(c3n(C)c12)C=CC(C)(C)O4`, the TGI in the assay on A498 renal, in the assay on CCRF-CEM leukemia, with HL-60(TB) leukemia, in the assay on HOP-92 NSCLC, with HS 578T breast and in the assay with IGROV1 ovarian was > 100 µM each time. The TGI was 48 µM in the assay with K-562 leukemia; > 100 µM in the assay on M14 melanoma; > 100 µM in the assay with MCF7 breast; > 100 µM with MDA-MB-231 breast; > 100 µM with NCI-H226 lung; > 100 µM in the assay on NCI-H460 lung. For the same molecule, the TGI is > 100 µM in the assay on NCI-H522 lung; > 100 µM in the assay on OVCAR-8 ovarian; 66.5 µM with RPMI-8226 leukemia; > 100 µM in the assay on SK-MEL-5 melanoma; > 100 µM with SNB-75 CNS; > 100 µM in the assay on U251 CNS. In addition, the TGI with UACC-62 melanoma is > 100 µM.
Regarding `O=C(CSCC(=O)N/N=C/c1ccncc1)N/N=C/c1ccncc1`, the TGI in the assay on A498 renal, in the assay on CCRF-CEM leukemia, in the assay on HL-60(TB) leukemia, in the assay on HOP-92 NSCLC, in the assay with HS 578T breast and with IGROV1 ovarian was > 100 µM each time. In addition, the TGI in the assay with K-562 leukemia, in the assay with M14 melanoma, in the assay with MCF7 breast, in the assay on MDA-MB-231 breast, in the assay with NCI-H226 lung and with NCI-H460 lung was > 100 µM in each case. The TGI with NCI-H522 lung, in the assay on OVCAR-8 ovarian, with RPMI-8226 leukemia, in the assay on SK-MEL-5 melanoma, in the assay with SNB-75 CNS and in the assay on U251 CNS was > 100 µM throughout. Further, the TGI in the assay with UACC-62 melanoma was > 100 µM.
For `CC(C)C(=O)CP(=O)(O)O`, the TGI in the assay with A498 renal, with CCRF-CEM leukemia, in the assay with HL-60(TB) leukemia, in the assay on HOP-92 NSCLC, with HS 578T breast and in the assay on IGROV1 ovarian was > 100 µM throughout. Further, the TGI in the assay with K-562 leukemia, in the assay with M14 melanoma, in the assay with MCF7 breast, in the assay on MDA-MB-231 breast, in the assay with NCI-H226 lung and with NCI-H460 lung was > 100 µM in each case. Besides, the TGI in the assay with NCI-H522 lung, in the assay with OVCAR-8 ovarian, in the assay on RPMI-8226 leukemia, with SK-MEL-5 melanoma, with SNB-75 CNS and in the assay with U251 CNS was > 100 µM in each case. Also, the TGI in the assay on UACC-62 melanoma was > 100 µM.
Turning to `Cc1cc(C)nc(NS(=O)(=O)c2ccc(NC(=O)c3ccc4nc5ccccc5c(Nc5ccc(S(=O)(=O)Nc6nc(C)cc(C)n6)cc5)c4c3)cc2)n1`, the TGI is > 100 µM in the assay on A498 renal; > 100 µM in the assay with CCRF-CEM leukemia; 79.1 µM in the assay with HL-60(TB) leukemia; > 100 µM in the assay on HOP-92 NSCLC; > 100 µM in the assay with HS 578T breast; > 100 µM in the assay with IGROV1 ovarian. Also, the TGI was > 100 µM in the assay with K-562 leukemia; > 100 µM with M14 melanoma; 84.5 µM with MCF7 breast; 53.9 µM in the assay with MDA-MB-231 breast; > 100 µM in the assay on NCI-H226 lung; > 100 µM in the assay on NCI-H460 lung. The TGI with NCI-H522 lung is 53.5 µM; in the assay on OVCAR-8 ovarian, > 100 µM; with RPMI-8226 leukemia, > 100 µM; in the assay on SK-MEL-5 melanoma it was > 100 µM; in the assay with SNB-75 CNS, > 100 µM; in the assay on U251 CNS, > 100 µM. In addition, the TGI with UACC-62 melanoma is > 100 µM.
With `COc1ccc(/C=C2\CC3C4CC=C5C[C@@H](O)CC[C@]5(C)C4CC[C@]3(C)C2=O)cc1OC` (some centres undefined), the TGI was 93.6 µM in the assay on A498 renal; > 100 µM with CCRF-CEM leukemia; > 100 µM in the assay on HL-60(TB) leukemia; > 100 µM in the assay with HOP-92 NSCLC; > 100 µM with HS 578T breast; > 100 µM with IGROV1 ovarian. Besides, the TGI in the assay with K-562 leukemia, with M14 melanoma, in the assay with MCF7 breast, with MDA-MB-231 breast, in the assay on NCI-H226 lung and in the assay on NCI-H460 lung was > 100 µM in each case. Also, the TGI is 57.6 µM in the assay with NCI-H522 lung; > 100 µM in the assay on OVCAR-8 ovarian; 36.2 µM with RPMI-8226 leukemia; 21.9 µM in the assay with SK-MEL-5 melanoma; > 100 µM in the assay on SNB-75 CNS; > 100 µM in the assay with U251 CNS. For the same molecule, in the assay on UACC-62 melanoma, the TGI was > 100 µM.
`Nc1c(O)c(C(=O)O)cc2ccccc12`: the TGI in the assay on A498 renal, in the assay with CCRF-CEM leukemia, in the assay on HL-60(TB) leukemia, with HOP-92 NSCLC, in the assay on HS 578T breast and with IGROV1 ovarian was > 100 µM each time. The TGI is 85.9 µM in the assay with K-562 leukemia; 35.2 µM with M14 melanoma; 24.2 µM with MCF7 breast; 28.8 µM with MDA-MB-231 breast; 99.8 µM in the assay on NCI-H226 lung; > 100 µM with NCI-H460 lung. The TGI in the assay with NCI-H522 lung was 54.2 µM; with OVCAR-8 ovarian it was > 100 µM; with RPMI-8226 leukemia it was 95.7 µM; in the assay with SK-MEL-5 melanoma it was 27.9 µM; in the assay with SNB-75 CNS, 53.5 µM; with U251 CNS, > 100 µM. Further, the TGI with UACC-62 melanoma was 31.6 µM.
